Results on two compounds are retold here after patent publication EP2573108A1, “Methods for identifying compounds capable of inhibiting degradation of PKM zeta” (SYGNIS Bioscience GmbH & Co KG, priority 2011, dated 2013).

Read-outs that look alike come from different tables or passages of the source. Where a SMILES comes first, the peptide text is derived from it. The star is where a group is joined. Cbz = O=C(OCc1ccccc1)*

By IC50 is commonly meant the concentration that inhibits the measured activity by half.

For experiment [1], the system named is PKM zeta. In words: PKM zeta protein stability after translation block with cycloheximide (Western blot), COS cells. Type of experiment: cell-based. The conditions noted are these: up to 48 h. On the procedure:
Electroporation of COS1 cells. COS1 cells were cultured in Dulbecco's modified eagle medium (DMEM) high glucose supplemented with 10% fetal calf serum (FCS). Cells were transfected with appropriate plasmids as indicated in the result section. For electroporation, COS-1 cells were harvested and resuspended in electroporation (EP)-buffer (50 mM K2HPO4, 20 mM CH3COOK, 20 mM KOH, pH 7.4) at a densitiy of 3.5x10^6 cells per transfection. After addition of 25 mM MgSO4, cells were mixed with 10 µg of plasmid-DNA (ratio of pulled down plasmid to co-expressed plasmid was 1:4; pure co-expression of two plasmids was performed in a ratio of 1:2) and transferred to an electroporation cuvette. Electroporation was performed in a Biorad Gene Pulsar II electroporator at 500 µF capacitance and 230 V, and cells were transferred into DMEM supplemented with 10% FCS and plated immediately. 48 h after transfection, cells were harvested for Co-IP. To perform western blot analysis, cells were stimulated 24 h after transfection for the indicated time points with cycloheximide and MG-132, respectively.
Western blotting. […] After syringing the lysate 5x, lysate was spun down at 13000 rpm at 4 °C for 10 min and the protein concentration of the supernate was determined (BCA-Test, Pierce). […] For quantification of scanned autoradiographs Windows ImageJ (NIH, Bethesda, MD,USA) was used.
A general note: In western blotting, separated proteins are transferred to a membrane and probed.

Experiment [2] has as its system PKM zeta. In words: PKM zeta protein stability after translation block with cycloheximide (Western blot), SHSY-5Y cells. Type of experiment: cell-based. On the procedure:
Western blotting. […] Lysates were frozen in liquid nitrogen and stored afterwards at -20°C. After syringing the lysate 5x, lysate was spun down at 13000 rpm at 4 °C for 10 min and the protein concentration of the supernate was determined (BCA-Test, Pierce). 1/5 volume of 5x sample-buffer (with β-Mercaptoethanol) was added and samples were denatured at 95 °C for 5 min. 50 µg of protein was run on a SDS-PAGE and proteins were transferred to nitrocellulose membranes using an iBlot™ Dry Blotting System (Invitrogen, Karlsruhe, Germany). […] For quantification of scanned autoradiographs Windows ImageJ (NIH, Bethesda, MD,USA) was used.

Experiment [3] has as its system KIBRA- PKM zeta complex. The conditions noted are these: for displacement of KIBRA from a pre-formed complex with PKM zeta: COS lysates, Fig. 4f. On the procedure: (§1) Starting from aa 882, increasing 20aa stretches of KIBRA were deleted and constructs were tested for interaction with FLAG-tagged PKM zeta. […] PKM zeta-flag expression constructs were co-transfected with EGFP-fusion constructs containing the 956-975 PKM zeta binding motif. Amino acids from position 964 to 974 were mutated to Alanin. […] Increasing concentrations of the peptide were added to COS-lysates co-expressing KIBRA and FLAG- PKM zeta before pull-down with anti-FLAG beads. […] The C-terminal serine residues that can be phosphorylated by PKM zeta in vitro were mutated to alanine or glutamate. […] Neurons were infected with a KIBRA-EGFP fusion constructs.
(§2) Co-immunoprecipitation. 2d after electroporation, cells were washed twice with ice-cold 1xPBS, and lyesd (50 mM Tris/HCl pH 7.4, 150 mM NaCl, 0.5% NP40, 20 mM NaF, 2 mM EDTA, 2 mM EGTA, 2 mM orthovanadate, protease inhibitor cocktail) at 4°C. Lysate was incubated with anti-flag beads (Sigma) at 4 °C for 2h, 5µl of peptide solution was added as indicated. Protein was released by 1x SDS loading buffer (without reducing reagents) (95 °C for 5min).
(§3) In more detail, 2d after electroporation, COS cells were washed twice with ice-cold IxPBS, and protein extraction was carried out by lysis of cells with lysis-buffer (50 mM Tris/HCl pH 7.4, 150 mM NaCl, 0.5% NP40, 20 mM NaF, 2 mM EDTA, 2 mM EGTA, 2 mM orthovanadate, protease inhibitor cocktail) at 4 °C. After incubation for 20 min at 4°C, the lysate was spun down at 13500 rpm at 4 °C for 10 min. One part of the supernatant was kept for direct Western analysis (lysate).

Experiment [4] has as its system PKM zeta. Conditions: PKM zeta expressed in COS cells, Fig. 4e. On the procedure:
as §1, §2, §3

On to `CC(C)C[C@@H](C=O)NC(=O)[C@H](CC(C)C)NC(=O)[C@H](CC(C)C)NC(=O)OCc1ccccc1` [MG132] (Cbz-Leu-Leu-Leu-aldehyde), for which the “PKM zeta levels after CHX” value in experiment [1] and in experiment [2] was “prevented the time-dependent decrease in kinase levels” in each case.

“DSSTLSKKPPFVRNSLERRSVRMKRPSSVKS [synthetic peptide 948-978]”: the “displacement of KIBRA from a pre-formed complex with PKM zeta” value in experiment [3] was “able to disrupt a preformed KIBRA- PKM zeta complex”; in experiment [3] (listed as aa 948-978), “able to displace KIBRA from a pre-formed complex with PKM zeta in a concentration-dependent manner”. The concentration for half-maximal inhibition (IC50) in experiment [3] (increasing concentrations of peptide added to COS-lysates co-expressing KIBRA and FLAG-PKM zeta before pull-down with anti-FLAG beads, estimated) is approximately 60 nM. Besides, the “binding to PKM zeta” value in experiment [4] (listed as aa 948-978) is “sufficient for binding”; in experiment [4] (listed as synthetic biotin-labeled peptide), “able to bind PKM zeta”.
